Measured values from US20030186464A1, “Surface plasmon resonance methods” (priority 2002, published 2003).

Assays:
[1] = biological target: wild type human IL-2 (Homo sapiens, UniProt P60568); assay: SPR binding of compounds to immobilized wild type IL-2 (Examples 1-2)
[2] = biological target: T1, Y31C-IL-2-SS -3 (Homo sapiens, UniProt P60568, Y51C); assay: SPR binding of compound to immobilized IL-2-SS-ligand complex (Examples 1-2); settings: immobilized substrate-SS-ligand complex Y31C-IL-2-SS -3
T1 construct: made in house; host or cells: E. coli
Experimental: (§1) A CM5 sensor chip (Biacore-BR-1000-14) is docked in a Biacore 2000 SPR device, and the chip is then normalized using a standard Biacore protocol with 70% glycerol. The chip is next equilibrated in PBS for approximately 1 hr at a 20 μL/min flow rate. The dextran surface of the chip is activated through an NHS/EDC coupling. This activation is done using an amine coupling kit (Biacore—BR-100-50) containing N-hydroxysuccinimide (NHS 11.5 mg/mL) and N-ethyl-N′-(3-dimethylaminopropyl) carbodiimide hydrochloride (EDC 75 mg/mL). The two reagents are first mixed in a 1:1 ratio and then 35 μL of the mixture are injected at 5 mL/min. The chip is activated one flow cell at a time, and that flow cell is subsequently labeled with protein.
(§2) IL-2 cysteine mutants are expressed in E. coli cells and purified using standard procedures. The cysteine mutants are treated with 10 mM βME overnight to reduce the surface cysteine. The βME is removed and the protein-thiolate is placed in 100 mM HEPES buffer pH 7.4 (Nap-5 column, Pierce). […]
(§3) The protein-SS—ligand complex is next concentrated to 100 μM using a Millipore-UFV5BCCOO 5K NMWL membrane, 0.5 mL centrifugal filter and tube. […] After injection the change in RUs is measured by marking the RUs at t=0 and t=final and subtracting. […]
(§4) The dilution series are analyzed by BIAevaluation software version 3.0. […]

[3] = biological target: T2, Y31C-IL-2-SS -4 (Homo sapiens, UniProt P60568, Y51C); assay: as above; settings: immobilized substrate-SS-ligand complex Y31C-IL-2-SS -4
T2 construct: made in house; host or cells: E. coli
Experimental: as §1, §2, §3, §4

[4] = biological target: T3, immobilized IL-2 (Homo sapiens, UniProt P60568); assay: Double ligand SPR on immobilized interleukin-2 (Examples 9-11); type: binding; settings: Example 11, immobilized interleukin-2; read-out: apparent Kd in SPR experiments
T3 construct: made in house; host or cells: E. coli
Experimental: as §1, with “SPR device” for “SPR device,”, “and” for “and the chip is then”, “This coupling” for “This activation”, “mg/mL). First, the” for “mg/mL). The”, “are” for “are first”, “5 μL/min.” for “5 mL/min.”
IL-2 is expressed in E. coli cells and purified using standard procedures. Protein is then concentrated to 100 μM and the buffer is exchanged to 100 mM MES pH 5.75 (Nap-5 column, Pierce). A sensorgram is then run over the activated flow cell at 2,L/min of PBS. The IL-2 solution is then injected at 2 μL/min for 10 min. After injection the change in RUs is measured by marking the RUs at t=0 and t=final and subtracting. This gives the total RU change, which is related to the total mass of protein successfully coupled to the CM5 surface. The total mass will later be used to determine stoichiometry of binding. This procedure is then repeated with another arbitrary protein to create a measure for nonspecific binding. The arbitrary protein is immobilized on an adjacent cell. […] The sensorgram is then altered to flow across all four cells on the CM5 chip at 5 μL/min PBS. A solution of 1 M ethanolamine hydrochloride-NaOH pH 8.5 (Amine coupling kit, Biacore-BR-100-50) is injected at 5 μL/min for 7 min. Proteins are immobilized at densities of 100-160 fmol/mm^2. The chip is equilibrated overnight in PBS+0.05% azide+2% DMSO at 20 μL/min.
In this experiment, variable concentrations of a compound are tested at a constant concentration of another compound. The compound held constant is 2c, for example (structure shown in Example 2). To determine appropriate constant concentrations for 2c, a compound titration is first performed. Dilution series of the compounds are typically performed to produce seven solutions having final compound concentrations of 30 mM, 10 mM, 3.3 mM, 1.1 mM, 0.37 mM, 0.12 mM, and 0.041 mM; an eighth solution is a DMSO-only baseline. The compounds are then diluted into PBS+0.05% azide to final concentrations of 300 μM, 100 μM, 33 μM, 11 μM, 3.7 μM, 1.2 μM, 0.41 μM. The compound solutions are injected from lowest concentration to highest at 40 μL/min for 1 min. The SPR software method includes a 1 min wash before injection, the injection and then a 3 min wash after the injection.
These dilution series are analyzed by BIAevaluation software version 3.0. Sensorgrams are plotted for compound binding to the IL-2 labeled cell of the chip. The sensorgrams are modified by subtracting the sensorgrams for the appropriate compound dilutions over cell 1 (a blank cell). This subtraction step removes any RU changes that might occur due to non-specific interactions between the compound and the chip itself or refractive changes in the buffer. Finally, the eight sensorgrams produced from the compound dilution series are zeroed at the average of their starting RUs. Then the sensorgram produced by injecting DMSO only is subtracted to reveal the final sensorgrams used to determine relative binding.
To determine KdSPR for the compound, the compound concentration is plotted on the X-axis, while the fraction bound at the plateau of the injection is plotted on the Y-axis. The curve is then analyzed via non-linear regression analysis (Kaleidagraph, Synergy Software). […] The concentration chosen is where the RUs remain constant at the top of the binding curve and thus the IL-2:2c ratio is 1. For 2c, this concentration is 100 μM.
A second compound is then run, this time in both the presence and absence of 2c. […]

[5] = biological target: T4, K43C-IL-2-SS -2 (Homo sapiens, UniProt P60568, K63C); assay: SPR binding of compounds to immobilized IL-2-SS-ligand complex (Examples 1-2); settings: immobilized substrate-SS-ligand complex K43C-IL-2-SS -2
T4 construct: made in house; host or cells: E. coli
Experimental: as §1, §2, §3, §4

T3 sequence (P60568 21-153): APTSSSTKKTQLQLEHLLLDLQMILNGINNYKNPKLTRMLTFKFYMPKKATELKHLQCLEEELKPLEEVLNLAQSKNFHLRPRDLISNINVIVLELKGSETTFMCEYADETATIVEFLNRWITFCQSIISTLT
Sequence of wild type human IL-2 (P60568 21-153): as above
T2 sequence (P60568 21-153 Y51C): as the sequence (P60568 21-153) above, with Y31C counted along it
T1 sequence (P60568 21-153 Y51C): as the sequence (P60568 21-153) above, with Y31C counted along it
T4 sequence (P60568 21-153 K63C): as the sequence (P60568 21-153) above, with K43C counted along it

Row | Kd ([1]; immobilized wild type human IL-2, read-out: IL-2 wt Kd) | Kd [2] | Kd [3] | Kd [4] | IL-2 wt Kd ([1]; immobilized wild type human IL-2) | Kd [5] | SMILES
1 | 33 µM | 8 µM | 30 µM | 10 µM | – | – | COC(=O)[C@H](Cc1ccc(C=Cc2ccccc2)cc1)NC(=O)C[C@H]1CCCN(C(=N)N)C1 [Compound 2c]
2 | – | – | – | > 500 µM | Inactive | 250 µM | COCC(=O)N1CCc2c([nH]c3ccccc23)C1 [Compound 3c]
